We go through 41 compounds from US20260097022A1, “COMPOUNDS AND USES THEREOF” (Integrated Biosciences, Inc., priority 2023, published 2026).

In one assay the test system is etoposide-treated IMR-90 cells. The assay can be described thus: Etoposide-induced senescence model, resazurin cell viability (screen and dose-response). The class given is cell-based, human. The conditions noted are these: 1 μM, 3 days. The procedure:
Cell culture. Human lung fibroblast (IMR-90) cells were obtained from ATCC (CCL-186) and passaged less than 10 times (less than 30 population doublings) for all experiments described in this example, with the exception of high-passage cells used in the model of replicative senescence (see the section on Replicative senescence below). Cells were cultured in growth media comprising Eagle's Minimum Essential Medium (EMEM: ATCC 30-2003) supplemented with 10% fetal bovine serum (FBS: Thermo Fisher 16140071) and 1% penicillin-streptomycin (Thermo Fisher 15070063). Cells were incubated in a humidity-controlled incubator at 37° C., with 5% CO2. Cells were detached using trypsin-EDTA (0.05%; Gibco 25300120).
Etoposide-induced senescence. IMR-90 cells were cultured as described above. At between 30 to 50% confluence, the media was replaced with complete growth media containing vehicle (0.5% dimethyl sulfoxide: DMSO, MilliporeSigma D5879) or complete growth media containing 50 μM etoposide (prepared as a 1:200 dilution of a 10 mM stock solution in DMSO; etoposide, MilliporeSigma E1383). Cells were treated for 2 days, after which the media was replaced with fresh growth media and cells were allowed to recover for 4 days. Cells were then plated as described below.
Chemical screening. For all screening experiments. 99 μL of cells were plated into each well of a 96-well clear flat-bottom, black polystyrene tissue-culture-treated plate (Corning 3904) at a density of ˜10+ cells/well. Plates were incubated overnight for adhesion. The day after plating. 1 μL of each compound, prepared as either a 1 mM stock solution in DMSO (10 μM final concentration screen) or 0.1 mM stock solution in DMSO (1 μM final concentration screen), was added to each well using an Agilent Bravo liquid handler. A built-in slow mixing step involving aspirating and dispensing was used to enhance distribution of the added compounds in solution. Cells were incubated for 3 days, after which resazurin (MilliporeSigma R^7017) was added to each well to a final concentration of 0.15 mM. After an additional 1 day of incubation, the fluorescence excitation/emission at 550/590 nm was read using a SpectraMaxR M3 plate reader and manufacturer software (SoftMax Pro R 6). Experiments were performed in biological duplicate.
Three-fold serial dilutions of compound were prepared in DMSO, then added to cell plates (final concentration of DMSO. 1%). Cell viability was then assayed as detailed above, and resazurin fluorescence values were linearly interpolated with respect to values from empty and positive control (non-treatment) wells. Experiments were performed in biological duplicate each on two independent occasions. When possible, chemical stocks from commercial suppliers were used: econazole nitrate (Cayman Chemical 20223), artenimol (Cayman Chemical 19846), and ABT-263 (Cayman Chemical 11500) were from Cayman Chemical, and dehydrodeguelin was aliquoted from the screening library.
Calculation of cellular viability values in dose-response curves. […] For each sample, the fluorescence intensity value was normalized by the mean of two untreated control values. Cellular viability values are therefore indicated as fractions of the cellular viability of untreated controls. Vehicle (1% DMSO) control values are included in each dose-response curve. Experiments were performed in biological duplicate each on two independent occasions.
Calculation of baseline cellular viability values. […] Additionally, baseline cellular viability values were calculated for untreated cells at the start of the experiment. Resazurin was added to a final concentration of 0.15 mM on the day of seeding (corresponding to day 0 in FIG. 7).
(In general: Resazurin is reduced to fluorescent resorufin, in cell work by metabolically active cells.)
On to `Cc1c(-c2ccc(N3CCc4cccc(C(=O)Nc5nc6ccccc6s5)c4C3)nc2C(=O)O)cnn1CC12CC3CC(CC(C3)C1)C2` [A-1331852, reference compound], for which the “senolytic activity in screen” value is “inactive”.

Staying with this assay, now noted: 10 μM, 3 days; active: control viability >0.5, Snc/control ratio <0.7.
Take `C[C@@H]1O[C@@H](O[C@H]2C[C@@H](O)[C@]3(CO)[C@H]4[C@H](O)C[C@]5(C)[C@@H](C6=CC(=O)OC6)CC[C@]5(O)[C@@H]4CC[C@]3(O)C2)[C@H](O)[C@H](O)[C@H]1O` [ouabain, reference compound]: the “senolytic activity in screen” value is on record as “active”.
Same read-out and setting: with `Cc1c(-c2ccc(N3CCc4cccc(C(=O)Nc5nc6ccccc6s5)c4C3)nc2C(=O)O)cnn1CC12CC3CC(CC(C3)C1)C2` [A-1331852, reference compound] the entry was “active”.

The assay is the same for the next values; noted with them: etoposide-induced senescence model; ratio of IC50 values between etoposide- and DMSO-treated IMR-90 fibroblasts.
For `COc1ccccc1C(=O)Nc1ccc2nc(SCC(=O)Nc3ccc(C(C)=O)cc3)sc2c1` [compound 21], the “Therapeutic Index (TI)” value was “+++ (compounds with a TI of >5 were labeled as +++)”.
Turning to `COc1cccc(C(=O)Nc2ccc3nc(SCC(=O)Nc4ccc(C)cc4)sc3c2)c1` [compound 13], the “Therapeutic Index (TI)” value is recorded as “+++ (compounds with a TI of >5 were labeled as +++)”.
Turning to `CCOc1ccc(C(=O)Nc2ccc3nc(SCC(=O)Nc4ccc(C)cc4C)sc3c2)cc1` [compound 47], the “Therapeutic Index (TI)” value is recorded as “++ (compounds with a TI of 1 to 5 were labelled as ++)”.
The same measure, in the same setting: the entry for `CC(=O)c1ccc(NC(=O)CSc2nc3ccc(NC(=O)c4ccccc4C)cc3s2)cc1` [compound 164] is “+ (Compounds with a TI of <1 were labelled as +)”; for `Cc1ccccc1NC(=O)CSc1nc2ccc(NC(=O)c3ccccc3C)cc2s1` [compound 152] it is “+ (Compounds with a TI of <1 were labelled as +)”.
Take `COc1ccccc1C(=O)Nc1ccc2nc(SCC(=O)Nc3ccc(C)cc3C)sc2c1` [compound 168]: the “Therapeutic Index (TI)” value is “+ (Compounds with a TI of <1 were labelled as +)”.
Take `COc1ccc(C(=O)Nc2ccc3nc(SCC(=O)Nc4ccccc4Cl)sc3c2)cc1` [compound 63]: the “Therapeutic Index (TI)” value is “++ (compounds with a TI of 1 to 5 were labelled as ++)”.
The same measure, in the same setting: the entry for `COc1ccc(C(=O)Nc2ccc3nc(SCC(=O)N(C)c4ccccc4)sc3c2)cc1` [compound 156] is “+ (Compounds with a TI of <1 were labelled as +)”; for `Cc1cccc(NC(=O)CSc2nc3ccc(NC(=O)c4ccccc4)cc3s2)c1C` [compound 150] it is “+ (Compounds with a TI of <1 were labelled as +)”.
As for `COc1ccc(NC(=O)CSc2nc3ccc(NC(=O)c4ccc(C)cc4)cc3s2)cc1` [compound 115], the “Therapeutic Index (TI)” value is recorded as “++ (compounds with a TI of 1 to 5 were labelled as ++)”.
On to `CCc1cccc(CC)c1NC(=O)CSc1nc2ccc(NC(=O)c3ccccc3C)cc2s1` [compound 69], for which the “Therapeutic Index (TI)” value is on record as “++ (compounds with a TI of 1 to 5 were labelled as ++)”.
On the same count and under the same terms, with `Cc1cc(C)cc(NC(=O)CSc2nc3ccc(NC(=O)c4ccccc4C)cc3s2)c1` [compound 118] the entry was “++ (compounds with a TI of 1 to 5 were labelled as ++)”; with `O=C(CSc1nc2ccc(NC(=O)c3ccccc3Cl)cc2s1)Nc1ccccc1` [compound 96], “++ (compounds with a TI of 1 to 5 were labelled as ++)”.
On the same count and under the same terms, the entry for `Cc1ccc(NC(=O)C(C)Sc2nc3ccc(NC(=O)c4ccccc4F)cc3s2)cc1` (stereo not drawn) [compound 10] is “+++ (compounds with a TI of >5 were labeled as +++)”; for `CC(C)c1ccc(NC(=O)CSc2nc3ccc(NC(=O)c4ccccc4)cc3s2)cc1` [compound 14] it is “+++ (compounds with a TI of >5 were labeled as +++)”.
Same read-out and setting: the entry for `COc1ccc(C(=O)Nc2ccc3nc(SCC(=O)Nc4ccccc4C)sc3c2)cc1` [compound 60] is “++ (compounds with a TI of 1 to 5 were labelled as ++)”; for `COc1ccc(Cl)cc1NC(=O)CSc1nc2ccc(NC(=O)c3ccc(C)cc3)cc2s1` [compound 131] it is “++ (compounds with a TI of 1 to 5 were labelled as ++)”; for `COc1ccccc1C(=O)Nc1ccc2nc(SCC(=O)Nc3cc(C)cc(C)c3)sc2c1` [compound 147] it is “+ (Compounds with a TI of <1 were labelled as +)”.
In the case of `Cc1cccc(C(=O)Nc2ccc3nc(SCC(=O)Nc4cc(Cl)ccc4C)sc3c2)c1` [compound 70], the “Therapeutic Index (TI)” value is “++ (compounds with a TI of 1 to 5 were labelled as ++)”.
On to `Cc1cccc(C(=O)Nc2ccc3nc(SCC(=O)Nc4ccccc4C)sc3c2)c1` [compound 7], for which the “Therapeutic Index (TI)” value is “+++ (compounds with a TI of >5 were labeled as +++)”.
Consider `COc1ccc(C(=O)Nc2ccc3nc(SCC(=O)Nc4cccc(C)c4)sc3c2)cc1` [compound 83], for which the “Therapeutic Index (TI)” value was “++ (compounds with a TI of 1 to 5 were labelled as ++)”.
Still for that read-out and setting: the entry for `CCOc1ccccc1NC(=O)CSc1nc2ccc(NC(=O)c3ccccc3Cl)cc2s1` [compound 26] is “+++ (compounds with a TI of >5 were labeled as +++)”; for `COc1ccc(C(=O)Nc2ccc3nc(SCC(=O)Nc4ccc(C)cc4C)sc3c2)cc1` [compound 11] it is “+++ (compounds with a TI of >5 were labeled as +++)”.
On to `COc1ccccc1C(=O)Nc1ccc2nc(SCC(=O)Nc3ccc(F)cc3)sc2c1` [compound 84], for which the “Therapeutic Index (TI)” value was “++ (compounds with a TI of 1 to 5 were labelled as ++)”.
`Cc1ccccc1C(=O)Nc1ccc2nc(SCC(=O)Nc3cccc(Cl)c3)sc2c1` [compound 107]: the “Therapeutic Index (TI)” value is recorded as “++ (compounds with a TI of 1 to 5 were labelled as ++)”.
Same read-out and setting: the entry for `CCOc1ccc(C(=O)Nc2ccc3nc(SCC(=O)Nc4cccc(C)c4)sc3c2)cc1` [compound 80] is “++ (compounds with a TI of 1 to 5 were labelled as ++)”.
Still for that read-out and setting: with `Cc1ccccc1C(=O)Nc1ccc2nc(SCC(=O)Nc3ccccc3F)sc2c1` [compound 29] the entry was “++ (compounds with a TI of 1 to 5 were labelled as ++)”.
As for `O=C(CSc1nc2ccc(NC(=O)c3ccc(Cl)cc3Cl)cc2s1)Nc1ccccc1` [compound 4], the “Therapeutic Index (TI)” value is “+++ (compounds with a TI of >5 were labeled as +++)”.
Still for that read-out and setting: with `Cc1ccccc1C(=O)Nc1ccc2nc(SCC(=O)NCCOc3ccccc3)sc2c1` [compound 93] the entry was “++ (compounds with a TI of 1 to 5 were labelled as ++)”; with `O=C(Nc1ccc2nc(SCC(=O)N3CCc4ccccc43)sc2c1)c1cccc(F)c1` [compound 31], “++ (compounds with a TI of 1 to 5 were labelled as ++)”; with `Cc1ccc(C(=O)Nc2ccc3nc(SCC(=O)Nc4ccccc4)sc3c2)cc1` [compound 36], “++ (compounds with a TI of 1 to 5 were labelled as ++)”.
Still for that read-out and setting: with `COc1ccccc1NC(=O)CSc1nc2ccc(NC(=O)c3ccccc3OC)cc2s1` [compound 28] the entry was “+++ (compounds with a TI of >5 were labeled as +++)”; with `COc1ccccc1NC(=O)CSc1nc2ccc(NC(=O)c3ccc(C)cc3)cc2s1` [compound 39], “++ (compounds with a TI of 1 to 5 were labelled as ++)”.
The same measure, in the same setting: with `O=C(CSc1nc2ccc(NC(=O)c3ccccc3)cc2s1)Nc1cccc([N+](=O)[O-])c1` [compound 87] the entry was “++ (compounds with a TI of 1 to 5 were labelled as ++)”; with `COc1ccc(NC(=O)CSc2nc3ccc(NC(=O)c4ccc(C(C)(C)C)cc4)cc3s2)cc1` [compound 117], “++ (compounds with a TI of 1 to 5 were labelled as ++)”; with `CCOc1ccc(C(=O)Nc2ccc3nc(SCC(=O)Nc4ccccc4)sc3c2)cc1` [compound 119], “++ (compounds with a TI of 1 to 5 were labelled as ++)”.
In the case of `COC(=O)c1ccc(NC(=O)CSc2nc3ccc(NC(=O)c4ccc(C)cc4)cc3s2)cc1` [compound 169], the “Therapeutic Index (TI)” value is recorded as “+ (Compounds with a TI of <1 were labelled as +)”.
Same read-out and setting: with `CS(=O)(=O)c1cccc(C(=O)Nc2ccc3nc(SCC(=O)Nc4ccc(F)cc4)sc3c2)c1` [compound 174] the entry was “+++ (compounds with a TI of >5 were labeled as +++)”.
Still for that read-out and setting: the entry for `CCOc1ccc(NC(=O)CSc2nc3ccc(NC(=O)c4ccccc4)cc3s2)cc1` [compound 166] is “+ (Compounds with a TI of <1 were labelled as +)”.
